Measurements from patent US20250213705A1, “PSMA TARGETING LIGANDS AND METHODS OF USE” (Bright Peak Therapeutics AG, priority 2023, published 2025).

Columns and labels:
[1] = biological target: Recombinant Human PSMA/FOLH1 Protein (Homo sapiens (Human), UniProt Q04609); test: Inhibition assay (Amplex Red glutamic acid/glutamate oxidase, NAAG substrate); assay type: biochemical; conditions: Target PSMA, average of N replicates; for IC50: PSMA 5 nM, NAAG 40 μM; for Ki: calculated based on Cheng-Prusoff equation
Method: Amplex™ Red Glutamic Acid/Glutamate Oxidase Assay Kit Catalog number: A12221 (Thermofisher); Recombinant Human PSMA/FOLH1 Protein, CF (rnd systems); N-Acetyl-Asp-Glu (NAAG) (Sigma Aldrich; 96 well half area plate; Enspire plate reader.
Prepare a working solution of 100 μM Amplex® Red reagent containing 0.25 U/mL HRP, 0.08 U/mL L-glutamate oxidase, 0.5 U/mL 1-glutamate-pyruvate transaminase, 200 μM L-alanine and keep protected from light. […] Final concentration is 5 nM. Transfer 10 μl/well of the inhibitor solution previously prepared in a separate 96 wells/plate.
Pipette 20 μl/well of the working solution prepared above. Incubate the reactions for 30 min at 37° C., protected from light. Because the assay is continuous (not terminated), fluorescence may be measured at multiple time points to follow the kinetics of the reactions. Measure the fluorescence in a fluorescence microplate reader using excitation in the range of 530-560 nm and emission detection at ˜590 nm. Ec50s were determined with GraphPad Prism. Ki is calculated based on Cheng-Prusoff equation.

human FOLH1 = human FOLH1 (Homo sapiens (Human), UniProt Q04609); test: SPR analysis of binding kinetics to biotinylated FOLH1 (Biacore 8K); conditions: ligand PSMA; for Kon: association rate; for koff: dissociation rate; for Kd: kinetic 1:1 binding model
Method: The interaction of PSMA-binding variants with human FOLH1 was measured with Surface Plasmon Resonance (SPR) technology. Biotinylated FOLH1 was captured at a concentration of 30 μg/mL onto a Streptavidin chip.
Binding kinetics of the analytes were measured with a Biacore 8K instrument in two-fold serial dilutions starting at 500 nM down to 1.95 nM in single cycle kinetic measurements. After each cycle, needles were washed with 50% DMSO. To measure the association to the FOLH1 protein, the samples were injected with a flow rate of 30 μL/min for 90 s, followed by 1200 s buffer only to detect the dissociation. The used running buffer was 1×PBS with 0.05% Tween20 and 2% DMSO. The relative response units (RU, Y-axis) are plotted against time (s, X-axis) and analyzed in a kinetic 1:1 binding model.
In a different setup, biotinylated FOLH1 was captured at a concentration of 0.8 μg/mL and the running buffer was 1×PBS with 0.05% Tween20.

human FOLH1, sequence (Q04609 whole entry): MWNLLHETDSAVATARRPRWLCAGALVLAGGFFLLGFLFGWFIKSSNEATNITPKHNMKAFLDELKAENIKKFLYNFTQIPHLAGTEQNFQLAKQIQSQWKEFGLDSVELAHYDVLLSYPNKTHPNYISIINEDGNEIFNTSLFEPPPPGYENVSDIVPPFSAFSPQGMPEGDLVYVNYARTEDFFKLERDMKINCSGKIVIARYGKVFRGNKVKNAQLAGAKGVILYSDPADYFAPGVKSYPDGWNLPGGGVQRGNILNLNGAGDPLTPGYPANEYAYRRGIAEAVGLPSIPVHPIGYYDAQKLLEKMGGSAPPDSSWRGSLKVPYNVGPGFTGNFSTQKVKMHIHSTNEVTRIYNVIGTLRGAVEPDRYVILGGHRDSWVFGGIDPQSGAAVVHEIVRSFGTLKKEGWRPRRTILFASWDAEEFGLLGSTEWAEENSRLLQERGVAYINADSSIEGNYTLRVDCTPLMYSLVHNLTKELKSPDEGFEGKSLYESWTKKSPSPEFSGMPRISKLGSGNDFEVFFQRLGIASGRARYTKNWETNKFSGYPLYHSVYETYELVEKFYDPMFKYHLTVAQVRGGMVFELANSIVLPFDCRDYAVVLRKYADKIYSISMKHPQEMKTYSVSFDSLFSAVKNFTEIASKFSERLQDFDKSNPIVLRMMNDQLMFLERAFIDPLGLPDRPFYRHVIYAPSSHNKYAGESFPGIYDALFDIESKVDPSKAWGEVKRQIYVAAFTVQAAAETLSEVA
Recombinant Human PSMA/FOLH1 Protein, sequence (Q04609 whole entry): as above

Row | Structure (SMILES) | IC50 [1] | Ki [1] | Kon (human FOLH1) | koff (human FOLH1) | Kd (human FOLH1)
1 | CC(=O)NCCOCCOCCOCCC(=O)N1C[C@H](NC(=O)COc2cc(C#N)cc(C#N)c2)C[C@H]1C(=O)N[C@@H](Cc1ccc2ccccc2c1)C(=O)NCCCC[C@H](NC(=O)N[C@@H](CCC(=O)O)C(=O)O)C(=O)O [Compound 79] | 7.79 nM | 0.0557 nM | 137000 1.ms | 0.000515 s⁻¹ | 3.76 nM
2 | CC(=O)NCCOCCOCCOCCC(=O)NC[C@H]1CC[C@H](C(=O)N[C@@H](Cc2ccc3ccccc3c2)C(=O)NCCCC[C@H](NC(=O)N[C@@H](Cc2ccco2)C(=O)O)C(=O)O)CC1 [Compound 49] | 16500 nM | 118 nM |  |  | 3080 nM
3 | CC(=O)NCCOCCOCCOCCC(=O)NC[C@H]1CC[C@H](C(=O)N[C@@H](Cc2c[nH]c3ccc(F)cc23)C(=O)NCCCC[C@H](NC(=O)N[C@@H](CCC(=O)O)C(=O)O)C(=O)O)CC1 [Compound 12] | 41.5 nM | 0.297 nM | 250000 1.ms | 0.000142 s⁻¹ | 0.568 nM
4 | CC(=O)NCCOCCOCCOCCC(=O)NC[C@H]1CC[C@H](C(=O)N[C@@H](Cc2ccc(C(=O)O)cc2)C(=O)NCCCC[C@H](NC(=O)N[C@@H](CCC(=O)O)C(=O)O)C(=O)O)CC1 [Compound 21] | 201 nM | 1.44 nM | 183000 1.ms | 0.00194 s⁻¹ | 10.6 nM
5 | CC(=O)NCCOCCOCCOCCC(=O)N[C@@H](Cc1ccc(C(=O)O)cc1)C(=O)NCCC(=O)N[C@@H](Cc1ccc2ccccc2c1)C(=O)NCCCC[C@H](NC(=O)N[C@@H](CCC(=O)O)C(=O)O)C(=O)O [Compound 95] | 11.5 nM | 0.0823 nM | 124000 1.ms | 0.000242 s⁻¹ | 1.95 nM
6 | CC(=O)NCCOCCOCCOCCC(=O)NC[C@H]1CC[C@H](C(=O)N[C@@H](Cc2c[nH]c3ccccc23)C(=O)NCCCC[C@H](NC(=O)N[C@@H](CCC(=O)O)C(=O)O)C(=O)O)CC1 (stereo in doubt) [Compound 2] | 25.1 nM | 0.18 nM | 158000 1.ms | 3.3e-05 s⁻¹ | 0.208 nM
7 | CC(=O)NCCOCCOCCOCCC(=O)N(CCCCOc1cc(C(F)(F)F)cc(C(F)(F)F)c1)CC(=O)N[C@@H](Cc1ccc2ccccc2c1)C(=O)NCCCC[C@H](NC(=O)N[C@@H](CCC(=O)O)C(=O)O)C(=O)O [Compound 88] | 63.3 nM | 0.452 nM | 215000 1.ms | 0.000329 s⁻¹ | 1.53 nM
8 | CC(=O)NCCOCCOCCOCCC(=O)N[C@@H](CCCOc1ccc(F)cc1F)C(=O)NC[C@H]1CC[C@H](C(=O)N[C@@H](Cc2ccc3ccccc3c2)C(=O)NCCCC[C@H](NC(=O)N[C@@H](CCC(=O)O)C(=O)O)C(=O)O)CC1 [Compound 40] | 155 nM | 1.11 nM | 153000 1.ms | 0.000249 s⁻¹ | 1.62 nM
9 | CC(=O)NCCOCCOCCOCCC(=O)NC[C@H]1CC[C@H](C(=O)N[C@@H](Cc2ccc(-c3ccccc3)cc2)C(=O)NCCCC[C@H](NC(=O)N[C@@H](CCC(=O)O)C(=O)O)C(=O)O)CC1 [Compound 7] | 171 nM | 1.23 nM | 293000 1.ms | 0.00167 s⁻¹ | 5.72 nM
10 | CC(=O)NCCOCCOCCOCCC(=O)N[C@@H](CCCOc1cc(C#N)cc(C#N)c1)C(=O)NCC(=O)N[C@@H](Cc1ccc2ccccc2c1)C(=O)NCCCC[C@H](NC(=O)N[C@@H](CCC(=O)O)C(=O)O)C(=O)O [Compound 52] | 26.1 nM | 0.187 nM | 291000 1.ms | 0.000326 s⁻¹ | 1.12 nM
11 | CC(=O)NCCOCCOCCOCCC(=O)NC[C@H]1CC[C@H](C(=O)N[C@H](Cc2c[nH]c3ccccc23)C(=O)NCCCC[C@H](NC(=O)N[C@@H](CCC(=O)O)C(=O)O)C(=O)O)CC1 [Compound 5] | 81.7 nM | 0.584 nM | 195000 1.ms | 0.000543 s⁻¹ | 2.78 nM
12 | CC(=O)NCCOCCOCCOCCC(=O)N1C[C@H](NC(=O)COc2cc(C#N)cc(C#N)c2)C[C@H]1C(=O)NCC(=O)N[C@@H](Cc1ccc2ccccc2c1)C(=O)NCCCC[C@H](NC(=O)N[C@@H](CCC(=O)O)C(=O)O)C(=O)O [Compound 89] | 93.5 nM | 0.669 nM | 121000 1.ms | 0.000311 s⁻¹ | 2.58 nM
13 | CC(=O)NCCOCCOCCOCCC(=O)NC[C@H]1CC[C@H](C(=O)N[C@@H](Cc2ccc3ccccc3c2)C(=O)NCCCC[C@H](NC(=O)N[C@@H](CCc2n[nH]c(=O)o2)C(=O)O)C(=O)O)CC1 [Compound 48] | 10300 nM | 73.5 nM |  |  | 1650 nM
14 | CC(=O)NCCOCCOCCOCCC(=O)N[C@@H]1C[C@@H](C(=O)N[C@@H](Cc2ccc3ccccc3c2)C(=O)NCCCC[C@H](NC(=O)N[C@@H](CCC(=O)O)C(=O)O)C(=O)O)N(C(=O)CCCOc2cc(C#N)cc(C#N)c2)C1 (stereo in doubt) [Compound 82] | 1.8 nM | 0.0129 nM | 72200 1.ms | 0.000381 s⁻¹ | 5.27 nM
15 | CC(=O)NCCOCCOCCOCCC(=O)N(CCCOc1ccc(F)cc1F)CC(=O)NC[C@H]1CC[C@H](C(=O)N[C@@H](Cc2ccc3ccccc3c2)C(=O)NCCCC[C@H](NC(=O)N[C@@H](CCC(=O)O)C(=O)O)C(=O)O)CC1 [Compound 39] | 50.5 nM | 0.361 nM | 223000 1.ms | 0.00024 s⁻¹ | 1.08 nM
16 | C=CC[C@H](NC(=O)CCOCCOCCOCCNC(C)=O)C(=O)NC[C@H]1CC[C@H](C(=O)N[C@@H](Cc2ccc3ccccc3c2)C(=O)NCCCC[C@H](NC(=O)N[C@@H](CCC(=O)O)C(=O)O)C(=O)O)CC1 [Compound 41] | 88.1 nM | 0.63 nM | 102000 1.ms | 0.000199 s⁻¹ | 1.95 nM
17 | CC(=O)NCCOCCOCCOCCC(=O)N[C@@H]1C[C@@H](C(=O)N[C@@H](Cc2ccc3ccccc3c2)C(=O)NCCCC[C@H](NC(=O)N[C@@H](CCC(=O)O)C(=O)O)C(=O)O)N(C(=O)COc2cc(C#N)cc(C#N)c2)C1 [Compound 81] |  |  | 90000 1.ms | 0.000371 s⁻¹ | 
18 | CC(=O)NCCOCCOCCOCCC(=O)N[C@@H]1C[C@@H](C(=O)NCC(=O)N[C@@H](Cc2ccc3ccccc3c2)C(=O)NCCCC[C@H](NC(=O)N[C@@H](CCC(=O)O)C(=O)O)C(=O)O)N(C(=O)CCCOc2cc(C#N)cc(C#N)c2)C1 [Compound 92] |  |  | 297000 1.ms | 0.000301 s⁻¹ | 
19 | CC(=O)NCCOCCOCCOCCC(=O)N1C[C@H](NC(=O)CCCOc2cc(C#N)cc(C#N)c2)C[C@H]1C(=O)NCC(=O)N[C@@H](Cc1ccc2ccccc2c1)C(=O)NCCCC[C@H](NC(=O)N[C@@H](CCC(=O)O)C(=O)O)C(=O)O [Compound 91] |  |  | 71500 1.ms | 0.000258 s⁻¹ | 
20 | CC(=O)NCCOCCOCCOCCC(=O)N(CCCOc1cc(C(F)(F)F)cc(C(F)(F)F)c1)CC(=O)N[C@@H](Cc1ccc2ccccc2c1)C(=O)NCCCC[C@H](NC(=O)N[C@@H](CCC(=O)O)C(=O)O)C(=O)O [Compound 86] |  |  | 339000 1.ms | 0.000397 s⁻¹ | 
21 | CC(=O)NCCOCCOCCOCCC(=O)NC[C@H]1CC[C@H](C(=O)N[C@@H](Cc2ccc3ccccc3c2)C(=O)NCCCC[C@H](NC(=O)N[C@@H](CC(=O)O)C(=O)O)C(=O)O)CC1 [Compound 23] |  |  | 291000 1.ms | 0.0349 s⁻¹ | 
